Key:
PglaDRR = experiment: LC-MS product formation, substrate-inhibition fit; type: biochemical, Papaver glaucum; conditions: reduction; 500 μM NADPH; Bis-tris, optimized pH and temperature (Table S12)
PlasDRR(REPI) = experiment: LC-MS product formation, substrate-inhibition fit; type: biochemical, Papaver lasiothrix; conditions: reduction; 500 μM NADPH; Bis-tris, optimized pH and temperature (Table S12)
PburDRR = experiment: LC-MS product formation, substrate-inhibition fit; type: biochemical, Papaver burseri; conditions: reduction; 500 μM NADPH; Bis-tris, optimized pH and temperature (Table S12)
PsomCOR = target: T1, PsomCOR (Papaver somniferum, UniProt Q9SQ68); experiment: LC-MS product formation, Michaelis-Menten fit; conditions: reduction; 1 mM NADPH; Bis-tris, optimized pH and temperature (Table S12)
T1 sequence (Q9SQ68 1-321): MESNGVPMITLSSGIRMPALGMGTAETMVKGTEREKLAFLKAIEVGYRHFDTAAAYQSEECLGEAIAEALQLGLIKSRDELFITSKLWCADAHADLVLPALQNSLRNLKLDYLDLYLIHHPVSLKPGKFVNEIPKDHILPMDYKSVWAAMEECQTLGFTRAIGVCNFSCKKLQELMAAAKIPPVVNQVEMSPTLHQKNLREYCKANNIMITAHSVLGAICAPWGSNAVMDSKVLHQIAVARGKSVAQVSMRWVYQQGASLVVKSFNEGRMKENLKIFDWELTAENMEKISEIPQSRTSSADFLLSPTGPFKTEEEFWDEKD

PglaCOR = experiment: LC-MS product formation, Michaelis-Menten fit; type: biochemical, Papaver glaucum; conditions: reduction; 1 mM NADPH; Bis-tris, optimized pH and temperature (Table S12)
PapoCOR1 = experiment: LC-MS product formation, Michaelis-Menten fit; type: biochemical, Papaver apokrinomenon; conditions: reduction; 1 mM NADPH; Bis-tris, optimized pH and temperature (Table S12)
PtriCOR3 = experiment: LC-MS product formation, Michaelis-Menten fit; type: biochemical, Papaver triniifolium; conditions: reduction; 1 mM NADPH; Bis-tris, optimized pH and temperature (Table S12)
[1] = substrate: COc1ccc(CC2=[N+](C)CCc3cc(OC)c(O)cc32)cc1O; experiment: LC-MS product formation, substrate-inhibition fit; type: biochemical, Papaver somniferum; conditions: reduction; 500 μM NADPH; Bis-tris, optimized pH and temperature (Table S12)

COc1ccc(CC2=[N+](C)CCc3cc(OC)c(O)cc32)cc1O [1,2-dehydroreticuline]
Km (PglaDRR): 16.4 ± 2.3 µM | Km (PlasDRR(REPI)): 12.3 ± 2.2 µM | Km (PburDRR): 5.5 ± 1 µM

COc1ccc2c3c1O[C@H]1C(=O)C=C[C@H]4[C@@H](C2)N(C)CC[C@]314 [codeinone]
Km (PsomCOR): 17.4 ± 1.6 µM | Km (PglaCOR): 78.8 ± 5.6 µM | Km (PapoCOR1): 117 ± 17.8 µM | Km (PtriCOR3): 10 ± 0.9 µM

B1: PsomDRR(REPI) (Papaver somniferum) (protein)
chain: MESSGVPVITLGSGKVMPVLGMGTFEKVGKGSERERLAILKAIEVGYRYFDTAAAYETEEVLGEAIAEALQLGLVKSRDELFISSMLWCTDAHADRVLLALQNSLRNLKLEYVDLYMLPFPASLKPGKITMDIPEEDICRMDYRSVWAAMEECQNLGFTKSIGVSNFSCKKLQELMATANIPPAVNQVEMSPAFQQKKLREYCNANNILVSAISVLGSNGTPWGSNAVLGSEVLKKIAMAKGKSVAQVSMRWVYEQGASLVVKSFSEERLRENLNIFDWELTKEDHEKIGEIPQCRILSAYFLVSPNGPFKSQEELWDDEA
Km [1]: 7.3 ± 2.2 µM | kcat [1]: 5.36 ± 1.71 s⁻¹ | kcat/Km [1]: 735000 M⁻¹ s⁻¹
